“And” between values parts separate entries of the source, which are not always exact repeats. Equal entries are not always repeated.
Molecular target: T1, human TAS2R1 (Homo sapiens, UniProt Q9NYW7)
T1 construct: expressed in transfected cells; host or cells: HEK293T-Gα16gust44
T1 sequence (Q9NYW7 1-299): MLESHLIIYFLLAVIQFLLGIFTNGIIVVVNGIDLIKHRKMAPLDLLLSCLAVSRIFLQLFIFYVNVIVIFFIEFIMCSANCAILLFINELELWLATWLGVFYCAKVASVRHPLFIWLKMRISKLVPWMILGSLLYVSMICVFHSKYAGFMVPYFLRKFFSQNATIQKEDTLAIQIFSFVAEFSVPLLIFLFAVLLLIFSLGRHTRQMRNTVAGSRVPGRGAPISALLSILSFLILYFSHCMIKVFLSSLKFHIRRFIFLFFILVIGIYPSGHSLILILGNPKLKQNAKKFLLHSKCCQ
Experiment: Calcium imaging assay (FLIPR), HEK293T-Gα16gust44 cells transfected with human TAS2R1
Format: cell-based
Method: This set of bile acids was chosen because of their commercial availability in high purities, their diversity within the class of bile acids and their previous detection and quantitation in human blood. Stock solutions were prepared in DMSO.
As basal growth medium for the HEK293T-Gα16gust44 cell line[17],[59] served Dulbecco’s modified eagle medium (DMEM) (Thermo Fisher Scientific, Darmstadt, Germany) supplemented with 10 % fetal bovine serum (Sigma-Aldrich, Steinheim, Germany), 2 mM L-glutamine (Sigma-Aldrich, Steinheim, Germany), 100 units/ml penicillin (Sigma Aldrich, Steinheim, Germany) and 100 µg/ml streptomycin (Sigma Aldrich, Steinheim, Germany). Growth conditions were 37 °C, 5 % CO2 and saturated air-humidity[60].
HEK293T-Gα16gust44 cells were seeded on poly-D-lysine (10 µg/ml) coated 96-well plates to reach a confluence of 40-60 % the next day. For transient transfection 150 ng of plasmid DNA containing the receptor of interest and 0.3 µl lipofectamine 2000 (Thermo Fisher Scientific, Darmstadt, Germany) per well were used and transfection took place according to the manual of lipofectamine 2000. […] The empty vector DNA (mock) was transfected as negative control[14],[41].
Cells were loaded using the calcium-sensitive fluorescent dye Fluo-4-AM (Abcam, Cambridge, Great Britain) in the presence of 2.5 mM probenecid (Sigma-Aldrich, Steinheim, Germany) the day after transfection[13],[41]. 1 h after loading, cells were washed with C1 buffer using a BioTek Cell Washer, incubated in the dark for half an hour and washed again. For automated agonist application and measurement of fluorescence changes, a FLIPR^TETRA device (Molecular Devices, San José, United States) was used. Viability of cells was tested by application of 100 nM Somatostatin 14 (Bachem, Bubendorf, Switzerland)[42].
Measured data were negative control corrected by subtracting the signal of the mock-transfected cells and exported to Microsoft Excel using the FLIPR software ScreenWorks 4.2. In Microsoft Excel software, standardization of maximum fluorescence intensities to the basal fluorescence and normalization to the buffer-only control was done to calculate the relative fluorescence changes (ΔF/F).
Initial screening experiments performed in duplicate wells were confirmed by at least one replication and representative traces were selected for display. All dose-response relationships were determined by three independent experiments (biological replicates) performed in duplicates (technical replicates). Threshold concentrations, defined as lowest substance concentrations leading to statistically significant elevated fluorescence changes in receptor-transfected cells compared with empty vector-transfected cells, were determined using SigmaPlot with Student’s t-test to evaluate statistical significance (p < 0.01).

With `C[C@H](CCC(=O)NCC(=O)O)[C@H]1CC[C@H]2[C@@H]3[C@H](O)C[C@@H]4C[C@H](O)CC[C@]4(C)[C@H]3C[C@H](O)[C@]12C` [Glycocholic Acid, glycocholic acid] the “Efficacy = maximal amplitude (ΔF/F)” value (TAS2R1, bile acids, mean) was 0.1325, the “Efficacy (maximal amplitude ΔF/F), individual data points” value (TAS2R1, bile acids, single replicates, listed as GCA) was 0.1311 and 0.1247 and 0.1416 and the RLU (Time 0 s (second time grid)) was 0 RLU. The RLU (Time 2 s) was 1.34 RLU, the RLU (Time 4 s) was -10.9328 RLU and the RLU (Time 6 s) was -2.093 RLU. It also gave an RLU (Time 8 s) of -18.797 RLU, an RLU (Time 12 s) of -1.765 RLU and an RLU (Time 14 s) of -6.3 RLU. It also gave an RLU (Time 16 s) of 4.111 RLU, an RLU (Time 18 s) of 11.3452 RLU and an RLU (Time 18.781 s) of -8.381 RLU. It also gave an RLU (Time 20.781 s) of -65.4734 RLU, an RLU (Time 22.781 s) of -29.3432 RLU and an RLU (Time 24.781 s) of 49.9011 RLU. The RLU (Time 26.781 s) was 96.1968 RLU, the RLU (Time 28.781 s) was 184.074 RLU and the RLU (Time 30.781 s) was 256.685 RLU. For the same compound, the RLU (Time 32.781 s) was 311.082 RLU, the RLU (Time 34.781 s) was 379.127 RLU and the RLU (Time 36.781 s) was 406.227 RLU. For the same compound, the RLU (Time 38.781 s) was 484.171 RLU, the RLU (Time 40.781 s) was 488.749 RLU and the RLU (Time 42.781 s) was 562.235 RLU. For the same compound, the RLU (Time 44.781 s) was 571.006 RLU, the RLU (Time 46.781 s) was 594.154 RLU and the RLU (Time 48.781 s) was 570.694 RLU. For the same compound, the RLU (Time 50.781 s) was 587.34 RLU, the RLU (Time 52.781 s) was 583.343 RLU and the RLU (Time 54.781 s) was 607.705 RLU. It also gave an RLU (Time 56.781 s) of 600.065 RLU, an RLU (Time 58.781 s) of 617.139 RLU and an RLU (Time 60.781 s) of 617.101 RLU. For the same compound, the RLU (Time 62.781 s) was 619.569 RLU, the RLU (Time 64.781 s) was 627.557 RLU and the RLU (Time 66.781 s) was 602.719 RLU. It also gave an RLU (Time 68.781 s) of 631.839 RLU, an RLU (Time 70.781 s) of 609.358 RLU and an RLU (Time 72.781 s) of 606.454 RLU. The RLU (Time 74.781 s) was 603.445 RLU, the RLU (Time 76.781 s) was 621.396 RLU and the RLU (Time 78.781 s) was 618.749 RLU. For the same compound, the RLU (Time 80.781 s) was 605.728 RLU, the RLU (Time 82.781 s) was 588.632 RLU and the RLU (Time 84.781 s) was 592.001 RLU. For the same compound, the RLU (Time 86.781 s) was 573.367 RLU, the RLU (Time 88.781 s) was 587.481 RLU and the RLU (Time 90.781 s) was 582.427 RLU. For the same compound, the RLU (Time 92.781 s) was 543.758 RLU, the RLU (Time 94.781 s) was 568.088 RLU and the RLU (Time 96.781 s) was 550.308 RLU. For the same compound, the RLU (Time 98.781 s) was 566.578 RLU, the RLU (Time 100.781 s) was 550.017 RLU and the RLU (Time 102.781 s) was 549.55 RLU. The RLU (Time 104.781 s) was 541.673 RLU, the RLU (Time 106.781 s) was 534.917 RLU and the RLU (Time 108.781 s) was 501.47 RLU. For the same compound, the RLU (Time 110.781 s) was 477.052 RLU, the RLU (Time 112.781 s) was 487.765 RLU and the RLU (Time 114.781 s) was 493.52 RLU. It also gave an RLU (Time 116.781 s) of 450.802 RLU, an RLU (Time 118.781 s) of 454.358 RLU and an RLU (Time 120.781 s) of 451.439 RLU. It also gave an RLU (Time 122.781 s) of 430.145 RLU, an RLU (Time 124.781 s) of 453.415 RLU and an RLU (Time 126.781 s) of 442.632 RLU. The RLU (Time 128.781 s) was 400.74 RLU, the RLU (Time 130.781 s) was 403.872 RLU and the RLU (Time 132.781 s) was 393.75 RLU. For the same compound, the RLU (Time 134.781 s) was 397.711 RLU, the RLU (Time 136.781 s) was 397.074 RLU and the RLU (Time 137.547 s) was 371.152 RLU. The RLU (Time 143.547 s) was 348.952 RLU, the RLU (Time 149.547 s) was 319.38 RLU and the RLU (Time 155.547 s) was 291.839 RLU. For the same compound, the RLU (Time 161.547 s) was 291.362 RLU, the RLU (Time 167.547 s) was 251.037 RLU and the RLU (Time 173.547 s) was 217.997 RLU. It also gave an RLU (Time 179.547 s) of 213.168 RLU, an RLU (Time 185.547 s) of 202.093 RLU and an RLU (Time 191.547 s) of 176.088 RLU. It also gave an RLU (Time 197.547 s) of 167.876 RLU, an RLU (Time 203.547 s) of 164.283 RLU and an RLU (Time 209.547 s) of 146.788 RLU. It also gave an RLU (Time 215.547 s) of 144.843 RLU, an RLU (Time 221.547 s) of 126.114 RLU and an RLU (Time 227.547 s) of 89.1702 RLU. The RLU (Time 233.547 s) was 107.472 RLU, the RLU (Time 239.547 s) was 82.2731 RLU and the RLU (Time 245.547 s) was 57.4201 RLU. For the same compound, the RLU (Time 293.547 s) was 58.9267 RLU, the RLU (Time 299.547 s) was 40.6004 RLU and the RLU (calcium trace, sheet TAS2R1, Time 305.547 s) was 58.5113 RLU. For the same compound, the RLU (calcium trace, sheet TAS2R1, Time 311.547 s) was 53.2069 RLU, the RLU (calcium trace, sheet TAS2R1, Time 317.547 s) was 43.3091 RLU and the RLU (calcium trace, sheet TAS2R1, Time 323.547 s) was 43.6147 RLU. The RLU (calcium trace, sheet TAS2R1, Time 329.547 s) was 33.081 RLU, the RLU (calcium trace, sheet TAS2R1, Time 335.547 s) was 47.1496 RLU and the RLU (calcium trace, sheet TAS2R1, Time 341.547 s) was 32.1596 RLU. It also gave an RLU (calcium trace, sheet TAS2R1, Time 347.547 s) of 48.6454 RLU, an RLU (calcium trace, sheet TAS2R1, Time 353.547 s) of 51.461 RLU and an RLU (calcium trace, sheet TAS2R1, Time 359.547 s) of 49.6251 RLU. The “Δ F/F” value (conc. 0,01 mM, TAS2R1) was 0.004283, the “Δ F/F” value (conc. 0,1 mM, TAS2R1) was 0.04907 and the “Δ F/F” value (conc. 0,03 mM, TAS2R1) was 0.009584. The “Δ F/F” value (conc. 0,3 mM, TAS2R1) was 0.1325, the “Δ F/F” value (conc. 0,001 mM, TAS2R1) was 0.006338 and the “Δ F/F” value (conc. 0,003 mM, TAS2R1) was -0.001187. For the same compound, the “Activation threshold concentration TAS2R1” value (lowest concentration with significantly increased fluorescence vs empty vector (p < 0.01)) was 100 µM and 100.00 µM.

From PMC10247784, “Physiological activation of human and mouse bitter taste receptors by bile acids” (Communications Biology, 2023)
